Laboratory results reported in PubChem BioAssay (NCI).
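Test compounds were applied to cells in 96-well plates for 48 hours at 5 doses. GI50 is the concentration that inhibits growth by half. TGI is the concentration that stops growth completely.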

Columns and labels:
Assay in all cases: DTP human tumour cell line panel, 48 h
UACC-62 melanoma = tested on: UACC-62 melanoma
DU-145 prostate = tested on: DU-145 prostate
SF-539 CNS = tested on: SF-539 CNS
HCC-2998 colon = tested on: HCC-2998 colon
ACHN renal = tested on: ACHN renal
HT29 colon = tested on: HT29 colon
HCT-116 colon = tested on: HCT-116 colon
A549 NSCLC = tested on: A549 NSCLC
U251 CNS = tested on: U251 CNS
MDA-MB-231 breast = tested on: MDA-MB-231 breast
MCF7 breast = tested on: MCF7 breast
NCI-H522 lung = tested on: NCI-H522 lung
NCI-H23 lung = tested on: NCI-H23 lung
RPMI-8226 leukemia = tested on: RPMI-8226 leukemia
SNB-19 CNS = tested on: SNB-19 CNS
MDA-MB-435 = tested on: MDA-MB-435
HCT-15 colon = tested on: HCT-15 colon
SK-OV-3 ovarian = tested on: SK-OV-3 ovarian
T-47D breast = tested on: T-47D breast
BT-549 breast = tested on: BT-549 breast
KM12 colon = tested on: KM12 colon
HOP-62 NSCLC = tested on: HOP-62 NSCLC
COLO 205 colon = tested on: COLO 205 colon
IGROV1 ovarian = tested on: IGROV1 ovarian
SNB-75 CNS = tested on: SNB-75 CNS
K-562 leukemia = tested on: K-562 leukemia
HOP-92 NSCLC = tested on: HOP-92 NSCLC
A498 renal = tested on: A498 renal
TK-10 renal = tested on: TK-10 renal
OVCAR-5 ovarian = tested on: OVCAR-5 ovarian
M14 melanoma = tested on: M14 melanoma
SK-MEL-28 melanoma = tested on: SK-MEL-28 melanoma
NCI-H460 lung = tested on: NCI-H460 lung
SK-MEL-2 melanoma = tested on: SK-MEL-2 melanoma
MALME-3M melanoma = tested on: MALME-3M melanoma
HS 578T breast = tested on: HS 578T breast
SR leukemia = tested on: SR leukemia
RXF 393 renal = tested on: RXF 393 renal
OVCAR-4 ovarian = tested on: OVCAR-4 ovarian
EKVX NSCLC = tested on: EKVX NSCLC
SW-620 colon = tested on: SW-620 colon
OVCAR-3 ovarian = tested on: OVCAR-3 ovarian
HL-60(TB) leukemia = tested on: HL-60(TB) leukemia
PC-3 prostate = tested on: PC-3 prostate
CAKI-1 renal = tested on: CAKI-1 renal
NCI-H226 lung = tested on: NCI-H226 lung
SK-MEL-5 melanoma = tested on: SK-MEL-5 melanoma
SF-295 CNS = tested on: SF-295 CNS
UO-31 renal = tested on: UO-31 renal
OVCAR-8 ovarian = tested on: OVCAR-8 ovarian
SN12C renal = tested on: SN12C renal
CCRF-CEM leukemia = tested on: CCRF-CEM leukemia
SF-268 CNS = tested on: SF-268 CNS
UACC-257 melanoma = tested on: UACC-257 melanoma
786-0 renal = tested on: 786-0 renal
MOLT-4 leukemia = tested on: MOLT-4 leukemia
NCI/ADR-RES ovarian = tested on: NCI/ADR-RES ovarian
LOX IMVI melanoma = tested on: LOX IMVI melanoma

Compound S=c1ssnc1-c1cc2ccccc2o1 has a GI50 (UACC-62 melanoma) of 15.5 µM, a TGI (UACC-62 melanoma) of 29.4 µM and a GI50 (DU-145 prostate) of 7.35 µM. It also gave a TGI (DU-145 prostate) of 20.4 µM, a GI50 (SF-539 CNS) of 15.3 µM and a TGI (SF-539 CNS) of 29.8 µM. For the same compound, the GI50 (HCC-2998 colon) was 16.4 µM, the TGI (HCC-2998 colon) was 34.4 µM and the GI50 (ACHN renal) was 15.2 µM. It also gave a TGI (ACHN renal) of 38.8 µM, a GI50 (HT29 colon) of 14.3 µM and a TGI (HT29 colon) of 29.3 µM. For the same compound, the GI50 (HCT-116 colon) was 9.3 µM, the TGI (HCT-116 colon) was 36.8 µM and the GI50 (A549 NSCLC) was 16.3 µM. For the same compound, the TGI (A549 NSCLC) was 32.1 µM, the GI50 (U251 CNS) was 15.1 µM and the TGI (U251 CNS) was 28.4 µM. For the same compound, the GI50 (MDA-MB-231 breast) was 13.3 µM, the TGI (MDA-MB-231 breast) was 29.4 µM and the GI50 (MCF7 breast) was 9.55 µM. For the same compound, the TGI (MCF7 breast) was 32.1 µM, the GI50 (NCI-H522 lung) was 20.7 µM and the TGI (NCI-H522 lung) was 45.9 µM. It also gave a GI50 (NCI-H23 lung) of 24.4 µM, a TGI (NCI-H23 lung) of 75.5 µM and a GI50 (RPMI-8226 leukemia) of 2.36 µM. The TGI (RPMI-8226 leukemia) was 25.7 µM, the GI50 (SNB-19 CNS) was 16.7 µM and the TGI (SNB-19 CNS) was 36.8 µM. For the same compound, the GI50 (MDA-MB-435) was 11.6 µM, the TGI (MDA-MB-435) was 32 µM and the GI50 (HCT-15 colon) was 11.5 µM. For the same compound, the TGI (HCT-15 colon) was 25.5 µM, the GI50 (SK-OV-3 ovarian) was 18.7 µM and the TGI (SK-OV-3 ovarian) was 39.2 µM. For the same compound, the GI50 (T-47D breast) was 21.9 µM, the TGI (T-47D breast) was over 100 µM and the GI50 (BT-549 breast) was 13.8 µM. For the same compound, the TGI (BT-549 breast) was 27.7 µM, the GI50 (KM12 colon) was 14.1 µM and the TGI (KM12 colon) was 35.1 µM. For the same compound, the GI50 (HOP-62 NSCLC) was 17.3 µM, the TGI (HOP-62 NSCLC) was 37.6 µM and the GI50 (COLO 205 colon) was 14.8 µM. The TGI (COLO 205 colon) was 39.5 µM, the GI50 (IGROV1 ovarian) was 4.09 µM and the TGI (IGROV1 ovarian) was 29 µM. The GI50 (SNB-75 CNS) was 23.3 µM, the TGI (SNB-75 CNS) was 95.8 µM and the GI50 (K-562 leukemia) was 22.5 µM. The TGI (K-562 leukemia) was over 100 µM, the GI50 (HOP-92 NSCLC) was 18.5 µM and the TGI (HOP-92 NSCLC) was 43.2 µM. The GI50 (A498 renal) was 20 µM, the TGI (A498 renal) was 38.8 µM and the GI50 (TK-10 renal) was 22.1 µM. For the same compound, the TGI (TK-10 renal) was 45.9 µM, the GI50 (OVCAR-5 ovarian) was 20.8 µM and the TGI (OVCAR-5 ovarian) was 39.2 µM. For the same compound, the GI50 (M14 melanoma) was 16.5 µM, the TGI (M14 melanoma) was 60.7 µM and the GI50 (SK-MEL-28 melanoma) was 15.1 µM. For the same compound, the TGI (SK-MEL-28 melanoma) was 30 µM, the GI50 (NCI-H460 lung) was 11 µM and the TGI (NCI-H460 lung) was 29.5 µM. For the same compound, the GI50 (SK-MEL-2 melanoma) was 13.8 µM, the TGI (SK-MEL-2 melanoma) was 28.3 µM and the GI50 (MALME-3M melanoma) was 20.7 µM. It also gave a TGI (MALME-3M melanoma) of 46.8 µM, a GI50 (HS 578T breast) of 18.5 µM and a TGI (HS 578T breast) of 80.7 µM. It also gave a GI50 (SR leukemia) of 3.04 µM, a TGI (SR leukemia) of 18.3 µM and a GI50 (RXF 393 renal) of 7.78 µM. It also gave a TGI (RXF 393 renal) of 23.3 µM, a GI50 (OVCAR-4 ovarian) of 21.6 µM and a TGI (OVCAR-4 ovarian) of over 100 µM. For the same compound, the GI50 (EKVX NSCLC) was 11.8 µM, the TGI (EKVX NSCLC) was 30.8 µM and the GI50 (SW-620 colon) was 12.7 µM. It also gave a TGI (SW-620 colon) of 27.6 µM, a GI50 (OVCAR-3 ovarian) of 15.6 µM and a TGI (OVCAR-3 ovarian) of 49.2 µM. For the same compound, the GI50 (HL-60(TB) leukemia) was 14 µM, the TGI (HL-60(TB) leukemia) was over 100 µM and the GI50 (PC-3 prostate) was 3.82 µM. It also gave a TGI (PC-3 prostate) of 24.2 µM, a GI50 (CAKI-1 renal) of 10 µM and a TGI (CAKI-1 renal) of 26.1 µM. For the same compound, the GI50 (NCI-H226 lung) was 23.2 µM, the TGI (NCI-H226 lung) was 54.4 µM and the GI50 (SK-MEL-5 melanoma) was 13.6 µM. The TGI (SK-MEL-5 melanoma) was 26.7 µM, the GI50 (SF-295 CNS) was 14.3 µM and the TGI (SF-295 CNS) was 33.8 µM. For the same compound, the GI50 (UO-31 renal) was 13.4 µM, the TGI (UO-31 renal) was 30 µM and the GI50 (OVCAR-8 ovarian) was 11.3 µM. It also gave a TGI (OVCAR-8 ovarian) of 29.4 µM, a GI50 (SN12C renal) of 13.8 µM and a TGI (SN12C renal) of 32.1 µM. For the same compound, the GI50 (CCRF-CEM leukemia) was 3.23 µM, the TGI (CCRF-CEM leukemia) was over 100 µM and the GI50 (SF-268 CNS) was 13.9 µM. For the same compound, the TGI (SF-268 CNS) was 35 µM, the GI50 (UACC-257 melanoma) was 6.09 µM and the TGI (UACC-257 melanoma) was 20.5 µM. The GI50 (786-0 renal) was 16.5 µM, the TGI (786-0 renal) was 34.8 µM and the GI50 (MOLT-4 leukemia) was 3.39 µM. For the same compound, the TGI (MOLT-4 leukemia) was over 100 µM, the GI50 (NCI/ADR-RES ovarian) was 25.7 µM and the TGI (NCI/ADR-RES ovarian) was 90.7 µM. The GI50 (LOX IMVI melanoma) was 4.12 µM and the TGI (LOX IMVI melanoma) was 15.7 µM.
